Source: PubChem BioAssay (NCI)
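Test compounds were applied to cells in 96-well plates for 48 hours at 5 doses. GI50 = concentration required for 50% inhibition of growth. At the TGI there is no net growth.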

Columns and labels:
Assay in all cases: NCI-60 cell line screen, 48 h
RPMI-8226 leukemia = test system: RPMI-8226 leukemia
CAKI-1 renal = test system: CAKI-1 renal
SN12C renal = test system: SN12C renal
SK-MEL-28 melanoma = test system: SK-MEL-28 melanoma
SNB-19 CNS = test system: SNB-19 CNS
UO-31 renal = test system: UO-31 renal
SK-MEL-2 melanoma = test system: SK-MEL-2 melanoma
DMS 114 small cell lung = test system: DMS 114 small cell lung
SN12K1 renal = test system: SN12K1 renal
DMS 273 small cell lung = test system: DMS 273 small cell lung
A549 NSCLC = test system: A549 NSCLC
M19-MEL melanoma = test system: M19-MEL melanoma
A498 renal = test system: A498 renal
DLD-1 colon = test system: DLD-1 colon
SNB-78 CNS = test system: SNB-78 CNS
HOP-18 NSCLC = test system: HOP-18 NSCLC

C/C=C(/C)C(=O)O[C@@H]1c2c(C)coc2C[C@H]2CC[C@H](O)[C@H](C)[C@]21C
TGI (RPMI-8226 leukemia): > 100 µM
TGI (CAKI-1 renal): > 100 µM
TGI (SN12C renal): > 100 µM
TGI (SK-MEL-28 melanoma): > 100 µM
TGI (SNB-19 CNS): > 100 µM
TGI (UO-31 renal): > 100 µM

[Cl-].[Rh+3].c1ccc(-c2ccnc3c2ccc2c(-c4ccccc4)ccnc23)cc1.c1ccc(-c2ccnc3c2ccc2c(-c4ccccc4)ccnc23)cc1.c1ccc(-c2ccnc3c2ccc2c(-c4ccccc4)ccnc23)cc1
TGI (SK-MEL-2 melanoma): > 100 µM
TGI (DMS 114 small cell lung): 75 µM
GI50 (SN12K1 renal): 29.7 µM
TGI (SN12K1 renal): > 87.2 µM
TGI (DMS 273 small cell lung): 83.1 µM
TGI (A549 NSCLC): > 100 µM
GI50 (RPMI-8226 leukemia): 29.2 µM
TGI (RPMI-8226 leukemia): > 100 µM
GI50 (CAKI-1 renal): 60.5 µM
TGI (CAKI-1 renal): > 100 µM
TGI (M19-MEL melanoma): > 86.2 µM
TGI (SN12C renal): > 100 µM
TGI (A498 renal): > 83.4 µM
TGI (DLD-1 colon): > 64.4 µM
TGI (SK-MEL-28 melanoma): > 100 µM
TGI (SNB-78 CNS): > 100 µM
TGI (SNB-19 CNS): > 100 µM
TGI (UO-31 renal): > 100 µM
TGI (HOP-18 NSCLC): > 87.4 µM

O=[N+]([O-])c1ccc(/C=C/c2ccc(N=Nc3ccc(/C=C/c4ccc([N+](=O)[O-])cc4S(=O)(=O)O)c(S(=O)(=O)O)c3)cc2S(=O)(=O)O)c(S(=O)(=O)O)c1
TGI (SK-MEL-2 melanoma): > 100 µM
TGI (DMS 114 small cell lung): > 100 µM
TGI (SN12K1 renal): > 100 µM
TGI (DMS 273 small cell lung): > 100 µM
TGI (A549 NSCLC): > 100 µM
TGI (M19-MEL melanoma): > 100 µM
TGI (SN12C renal): > 100 µM
TGI (A498 renal): > 100 µM
TGI (DLD-1 colon): > 100 µM
TGI (SK-MEL-28 melanoma): > 100 µM
TGI (SNB-78 CNS): > 100 µM
TGI (UO-31 renal): > 100 µM
TGI (HOP-18 NSCLC): > 100 µM
